# Inconclusive results and toxic doses are left out.
# Test system: CD2F1 mice, ip Colon 26 adenocarcinoma, median survival T/C
# Test: NCI In Vivo Anticancer Drug Screen. Data for tumor model Colon 26 Adenocarcinoma (intraperitoneal) in CD2F1 (CDF1) mice
# Settings: endpoint: median survival time, higher = longer survival
# Procedure: The antitumor activity of compounds was measured in mice bearing transplantable tumors. Survival or tumor size were measured and the results are expressed as the measurement made in the treated group (T) divided by the measurement made in the vehicle treated control group (C). The tumor model used in this assay is Colon 26 Adenocarcinoma (intraperitoneal) in CD2F1 (CDF1) mice
smiles,measurement,setting,value
Cc1cn(C2CC3[O][Sn]([c]4ccccc4)([c]4ccccc4)[O]CC3O2)c(=O)[nH]c1=O (centres undefined),T/C,"dose: 25.0 mg/kg/injection, schedule: Q04DX002 (ip), vehicle: saline",96 % of control
same,T/C,"dose: 50.0 mg/kg/injection, schedule: Q04DX002 (ip), vehicle: saline",103 % of control
same,T/C,"dose: 100.0 mg/kg/injection, schedule: Q04DX002 (ip), vehicle: saline",112 % of control
CC(=O)C1(O)Cc2c(O)c3c(c(O)c2C(OC2CC(N)C(O)C(C)O2)C1)C(=O)c1ccccc1C3=O (centres undefined),T/C,"dose: 1.4 mg/kg/injection, schedule: Q07DX002 (iv), vehicle: saline",107 % of control
same,T/C,"dose: 2.3 mg/kg/injection, schedule: Q07DX002 (iv), vehicle: saline",120 % of control
same,T/C,"dose: 324.0 micrograms/kg/injection, schedule: Q04DX003 (ip), vehicle: water",157 % of control
same,T/C,"dose: 900.0 micrograms/kg/injection, schedule: Q04DX003 (ip), vehicle: water",92 % of control
CN(C)CCCNc1c2ccccc2nc2cccc([N+](=O)[O-])c12,T/C,"dose: 0.02 mg/kg/injection, schedule: Q07DX002 (iv), vehicle: saline with Tween-80",105 % of control
same,T/C,"dose: 0.04 mg/kg/injection, schedule: Q07DX002 (iv), vehicle: saline with Tween-80",107 % of control
same,T/C,"dose: 0.07 mg/kg/injection, schedule: Q07DX002 (iv), vehicle: saline with Tween-80",108 % of control
same,T/C,"dose: 0.12 mg/kg/injection, schedule: Q07DX002 (iv), vehicle: saline with Tween-80",106 % of control
same,T/C,"dose: 0.3 mg/kg/injection, schedule: Q07DX002 (iv), vehicle: saline with Tween-80",101 % of control
same,T/C,"dose: 0.46 mg/kg/injection, schedule: Q07DX002 (iv), vehicle: saline with Tween-80",100 % of control
C/C(=C\c1ccccc1)[N+](=O)[O-],T/C,"dose: 3.12 mg/kg/injection, schedule: Q04DX003 (ip), vehicle: Klucel (hydroxypropylcellulose) (HPC)",91 % of control
same,T/C,"dose: 6.25 mg/kg/injection, schedule: Q04DX003 (ip), vehicle: Klucel (hydroxypropylcellulose) (HPC)",97 % of control
same,T/C,"dose: 12.5 mg/kg/injection, schedule: Q04DX003 (ip), vehicle: Klucel (hydroxypropylcellulose) (HPC)",96 % of control
same,T/C,"dose: 25.0 mg/kg/injection, schedule: Q04DX003 (ip), vehicle: Klucel (hydroxypropylcellulose) (HPC)",90 % of control
COc1cc(NS(C)(=O)=O)ccc1Nc1c2ccccc2nc2ccccc12,T/C,"dose: 0.5 mg/kg/injection, schedule: Q04DX002 (ip), vehicle: other",111 % of control
same,T/C,"dose: 0.5 mg/kg/injection, schedule: Q04DX003 (ip), vehicle: other",98 % of control
same,T/C,"dose: 1.0 mg/kg/injection, schedule: Q04DX002 (ip), vehicle: other",119 % of control
same,T/C,"dose: 1.0 mg/kg/injection, schedule: Q04DX003 (ip), vehicle: other",112 % of control
same,T/C,"dose: 2.0 mg/kg/injection, schedule: Q04DX003 (ip), vehicle: other",117 % of control
same,T/C,"dose: 4.0 mg/kg/injection, schedule: Q04DX002 (ip), vehicle: other",151 % of control
same,T/C,"dose: 8.0 mg/kg/injection, schedule: Q04DX002 (ip), vehicle: other",185 % of control
same,T/C,"dose: 8.0 mg/kg/injection, schedule: Q04DX003 (ip), vehicle: other",156 % of control
same,T/C,"dose: 16.0 mg/kg/injection, schedule: Q04DX002 (ip), vehicle: other",240 % of control
same,T/C,"dose: 16.0 mg/kg/injection, schedule: Q04DX003 (ip), vehicle: other",170 % of control
Nc1ccc(Cl)cc1N,T/C,"dose: 12.5 mg/kg/injection, schedule: Q04DX003 (ip), vehicle: saline + Tween-80 + alcohol",96 % of control
same,T/C,"dose: 12.5 mg/kg/injection, schedule: Q04DX003 (ip), vehicle: saline with Tween-80",100 % of control
same,T/C,"dose: 25.0 mg/kg/injection, schedule: Q04DX003 (ip), vehicle: saline + Tween-80 + alcohol",98 % of control
same,T/C,"dose: 25.0 mg/kg/injection, schedule: Q04DX003 (ip), vehicle: saline with Tween-80",100 % of control
same,T/C,"dose: 50.0 mg/kg/injection, schedule: Q04DX003 (ip), vehicle: saline + Tween-80 + alcohol",102 % of control
same,T/C,"dose: 50.0 mg/kg/injection, schedule: Q04DX003 (ip), vehicle: saline with Tween-80",100 % of control
same,T/C,"dose: 100.0 mg/kg/injection, schedule: Q04DX003 (ip), vehicle: saline + Tween-80 + alcohol",104 % of control
same,T/C,"dose: 100.0 mg/kg/injection, schedule: Q04DX003 (ip), vehicle: saline with Tween-80",102 % of control
same,T/C,"dose: 200.0 mg/kg/injection, schedule: Q04DX003 (ip), vehicle: saline + Tween-80 + alcohol",107 % of control
same,T/C,"dose: 200.0 mg/kg/injection, schedule: Q04DX003 (ip), vehicle: saline with Tween-80",106 % of control
same,T/C,"dose: 400.0 mg/kg/injection, schedule: Q04DX003 (ip), vehicle: saline with Tween-80",109 % of control
C[C@]12CC[C@@H]3c4ccc(O)cc4CC[C@H]3[C@@H]1CC[C@@H]2O,T/C,"dose: 6.25 mg/kg/injection, schedule: Q04DX002 (ip), vehicle: Klucel (hydroxypropylcellulose) (HPC)",103 % of control
same,T/C,"dose: 12.5 mg/kg/injection, schedule: Q04DX002 (ip), vehicle: Klucel (hydroxypropylcellulose) (HPC)",95 % of control
same,T/C,"dose: 25.0 mg/kg/injection, schedule: Q04DX002 (ip), vehicle: Klucel (hydroxypropylcellulose) (HPC)",94 % of control
same,T/C,"dose: 50.0 mg/kg/injection, schedule: Q04DX002 (ip), vehicle: Klucel (hydroxypropylcellulose) (HPC)",103 % of control
same,T/C,"dose: 100.0 mg/kg/injection, schedule: Q04DX002 (ip), vehicle: Klucel (hydroxypropylcellulose) (HPC)",100 % of control
same,T/C,"dose: 200.0 mg/kg/injection, schedule: Q04DX002 (ip), vehicle: Klucel (hydroxypropylcellulose) (HPC)",98 % of control
CC1C(=O)CCC2(C)C1CCC1CC3CC12CCC3(O)CO (centres undefined),T/C,"dose: 25.0 mg/kg/injection, schedule: Q04DX002 (ip), vehicle: saline + alcohol",100 % of control
same,T/C,"dose: 50.0 mg/kg/injection, schedule: Q04DX002 (ip), vehicle: saline + alcohol",106 % of control
same,T/C,"dose: 100.0 mg/kg/injection, schedule: Q04DX002 (ip), vehicle: saline + alcohol",92 % of control
CCCCCCCCNc1cc2c3c(c1)CCCN3CCC2,T/C,"dose: 0.37 mg/kg/injection, schedule: Q04DX003 (ip), vehicle: Klucel (hydroxypropylcellulose) (HPC)",104 % of control
same,T/C,"dose: 0.75 mg/kg/injection, schedule: Q04DX003 (ip), vehicle: Klucel (hydroxypropylcellulose) (HPC)",100 % of control
same,T/C,"dose: 1.5 mg/kg/injection, schedule: Q04DX003 (ip), vehicle: Klucel (hydroxypropylcellulose) (HPC)",102 % of control
same,T/C,"dose: 3.0 mg/kg/injection, schedule: Q04DX003 (ip), vehicle: Klucel (hydroxypropylcellulose) (HPC)",109 % of control
same,T/C,"dose: 6.0 mg/kg/injection, schedule: Q04DX003 (ip), vehicle: Klucel (hydroxypropylcellulose) (HPC)",106 % of control
C=C1C(=O)C23C(O)CC4C5(C)CCCC4(C(O)OC5)C2C(OC(C)=O)CC1C3O (centres undefined),T/C,"dose: 8.0 mg/kg/injection, schedule: Q04DX002 (ip), vehicle: saline with Tween-80",116 % of control
same,T/C,"dose: 16.0 mg/kg/injection, schedule: Q04DX002 (ip), vehicle: saline with Tween-80",109 % of control
same,T/C,"dose: 32.0 mg/kg/injection, schedule: Q04DX002 (ip), vehicle: saline with Tween-80",92 % of control
same,T/C,"dose: 64.0 mg/kg/injection, schedule: Q04DX002 (ip), vehicle: saline with Tween-80",103 % of control
O=C1C=CN(C2OC(CO)C(O)C2O)C(=O)C1 (centres undefined),T/C,"dose: 25.0 mg/kg/injection, schedule: Q01DX005 (ip), vehicle: saline",109 % of control
same,T/C,"dose: 25.0 mg/kg/injection, schedule: Q04DX003 (ip), vehicle: saline",112 % of control
same,T/C,"dose: 50.0 mg/kg/injection, schedule: Q01DX005 (ip), vehicle: saline",102 % of control
same,T/C,"dose: 50.0 mg/kg/injection, schedule: Q04DX003 (ip), vehicle: saline",109 % of control
same,T/C,"dose: 100.0 mg/kg/injection, schedule: Q01DX005 (ip), vehicle: saline",98 % of control
same,T/C,"dose: 100.0 mg/kg/injection, schedule: Q04DX003 (ip), vehicle: saline",106 % of control
same,T/C,"dose: 200.0 mg/kg/injection, schedule: Q01DX005 (ip), vehicle: saline",106 % of control
same,T/C,"dose: 200.0 mg/kg/injection, schedule: Q04DX003 (ip), vehicle: saline",102 % of control
same,T/C,"dose: 400.0 mg/kg/injection, schedule: Q01DX005 (ip), vehicle: saline",102 % of control
same,T/C,"dose: 400.0 mg/kg/injection, schedule: Q04DX003 (ip), vehicle: saline",109 % of control
Nc1ccc2nc3ccc(N)cc3[n+](-c3ccccc3)c2c1,T/C,"dose: 4.0 mg/kg/injection, schedule: Q04DX003 (ip), vehicle: saline",121 % of control
same,T/C,"dose: 8.0 mg/kg/injection, schedule: Q04DX003 (ip), vehicle: saline",120 % of control
same,T/C,"dose: 16.0 mg/kg/injection, schedule: Q04DX003 (ip), vehicle: saline",120 % of control

# From PubChem BioAssay AID210 (DTP/NCI, 2004)
